Measured values reported in US20200405696A1, “INHIBITORS OF INDOLEAMINE 2,3-DIOXYGENASE AND/OR TRYPTOPHAN 2,3-DIOXYGENASE” (IDORSIA PHARMACEUTICALS LTD, priority 2018, published 2020).

Assays:
[1] = biological target: T1, Recombinant full-length human IDO1 (Homo sapiens, UniProt P14902); experiment: IDO1 enzymatic assay (NFK quantified by LCMS); assay type: biochemical; details: 2 nM enzyme, 5 μM L-tryptophan, pH6.5, 30 minutes pre-incubation at RT; mean values when measured multiple times; read-out: hIDO activity (IC50 in nM)
T1 construct: Recombinant full-length human IDO1 with a N-terminal hexahistidine tag; hexahistidine (His6) (N); made in house; host or cells: E. coli
T1 sequence (P14902 whole entry): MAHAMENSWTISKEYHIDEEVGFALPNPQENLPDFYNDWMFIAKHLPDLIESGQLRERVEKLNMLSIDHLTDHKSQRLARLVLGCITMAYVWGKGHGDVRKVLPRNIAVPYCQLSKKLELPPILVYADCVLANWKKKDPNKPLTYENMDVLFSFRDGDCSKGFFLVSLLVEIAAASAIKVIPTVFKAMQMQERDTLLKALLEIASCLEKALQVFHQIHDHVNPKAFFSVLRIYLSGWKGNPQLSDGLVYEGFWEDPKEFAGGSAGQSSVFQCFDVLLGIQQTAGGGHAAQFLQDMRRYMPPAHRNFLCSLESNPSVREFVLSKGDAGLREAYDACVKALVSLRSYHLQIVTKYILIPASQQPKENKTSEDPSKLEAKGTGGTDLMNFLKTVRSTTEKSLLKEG
In short: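 IC50 comes from four-parameter logistic fits of duplicate data, with NFK quantified by LCMS and normalized to L-Trp-(indole-d5). Compound (0.5 nM–10 μM) was preincubated 30 min at RT with 2 nM E. coli-expressed IDO1 before a 30 min reaction with 5 μM tryptophan in pH 6.5 buffer containing ascorbate and methylene blue.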

[2] = biological target: T2, Recombinant human TDO comprising amino acids 19-407 (Homo sapiens, UniProt P48775); experiment: TDO2 enzymatic assay (NFK quantified by LCMS); assay type: biochemical; details: 15 nM enzyme, 200 μM L-tryptophan, pH7, 30 minutes pre-incubation at RT; mean values when measured multiple times; read-out: hTDO activity (IC50 in nM)
T2 construct: Recombinant human TDO comprising amino acids 19-407 with a N-terminal hexahistidine tag; hexahistidine (His6) (N); made in house; host or cells: E. coli
T2 sequence (P48775 19-406 limits assumed): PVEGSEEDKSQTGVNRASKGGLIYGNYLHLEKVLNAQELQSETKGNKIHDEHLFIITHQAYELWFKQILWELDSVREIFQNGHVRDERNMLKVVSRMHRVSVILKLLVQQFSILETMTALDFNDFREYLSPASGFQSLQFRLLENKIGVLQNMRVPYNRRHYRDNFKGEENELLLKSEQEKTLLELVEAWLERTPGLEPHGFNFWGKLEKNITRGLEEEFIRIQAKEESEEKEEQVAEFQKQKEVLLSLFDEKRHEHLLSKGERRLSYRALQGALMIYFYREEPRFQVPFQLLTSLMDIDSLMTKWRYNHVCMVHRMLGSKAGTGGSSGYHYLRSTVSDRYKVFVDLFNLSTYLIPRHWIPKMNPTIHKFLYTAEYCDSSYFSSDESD
In short: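 NFK formed over 30 min at RT from 200 μM L-tryptophan was measured by LCMS, normalized to d5-tryptophan, after compound (0.5 nM–10 μM, duplicates, 0.6% DMSO) was preincubated 30 min with 15 nM recombinant His-tagged TDO 19-407 in phosphate buffer pH 7. IC50 from four-parameter logistic fit; repeats averaged.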

Row | Structure (SMILES) | IC50 [1] [nM] | IC50 [2] [nM]
1 | CCc1sc2cncn2c1C(O)c1cn(-c2ccc(C(=O)N3CCOCC3)cc2)nn1 (racemic) [Example 117, rac-(4-{4-[(2-Ethyl-imidazo[5,1-b]thiazol-3-yl)-hydroxy-methyl]-[1,2,3]triazol-1-yl}-phenyl)-morpholin-4-yl-methanone] | 93.3 | > 10200
2 | CCc1sc2cncn2c1C(O)c1cn(-c2ccc(C(=O)NCCO)cc2)nn1 (racemic) [Example 118, rac-4-{4-[(2-Ethyl-imidazo[5,1-b]thiazol-3-yl)-hydroxy-methyl]-[1,2,3]triazol-1-yl}-N-(2-hydroxy-ethyl)-benzamide] | 15.8 | 9550
3 | CCc1sc2cncn2c1C(O)c1cn(-c2ccc(C(=O)NCCN(C)C)cc2)nn1 (racemic) [Example 119, rac-N-(2-Dimethylamino-ethyl)-4-{4-[(2-ethyl-imidazo[5,1-b]thiazol-3-yl)-hydroxy-methyl]-[1,2,3]triazol-1-yl}-benzamide] | 133 | 9720
4 | CCc1sc2cncn2c1C(O)c1cn(-c2ccc(NC(=O)C(C)(C)C)cc2)nn1 (racemic) [Example 120, rac-N-(4-{4-[(2-Ethyl-imidazo[5,1-b]thiazol-3-yl)-hydroxy-methyl]-[1,2,3]triazol-1-yl}-phenyl)-2,2-dimethyl-propionamide] | 11 | > 10200
5 | CCc1sc2cncn2c1C(O)c1cn(-c2ccc(NC(=O)N3CCOCC3)cc2)nn1 (racemic) [Example 121, rac-Morpholine-4-carboxylic acid (4-{4-[(2-ethyl-imidazo[5,1-b]thiazol-3-yl)-hydroxy-methyl]-[1,2,3]triazol-1-yl}-phenyl)-amide] | 32 | 7720
6 | CCCCNC(=O)Nc1ccc(-n2cc(C(O)c3c(CC)sc4cncn34)nn2)cc1 (racemic) [Example 122, rac-1-Butyl-3-(4-{4-[(2-ethyl-imidazo[5,1-b]thiazol-3-yl)-hydroxy-methyl]-[1,2,3]triazol-1-yl}-phenyl)-urea] | 25.6 | 2070
7 | CCc1sc2cncn2c1C(O)c1cn(-c2ccc(C(=O)NCc3ccco3)cc2)nn1 (racemic) [Example 123, rac-4-{4-[(2-Ethyl-imidazo[5,1-b]thiazol-3-yl)-hydroxy-methyl]-[1,2,3]triazol-1-yl}-N-furan-2-ylmethyl-benzamide] | 8.09 | 6770
8 | CCc1sc2cncn2c1C(O)c1cn(-c2ccc(C(=O)N(C)CC)cc2)nn1 (racemic) [Example 124, rac-N-Ethyl-4-{4-[(2-ethyl-imidazo[5,1-b]thiazol-3-yl)-hydroxy-methyl]-[1,2,3]triazol-1-yl}-N-methyl-benzamide] | 109 | > 10200
9 | CCc1sc2cncn2c1C(O)c1cn(-c2ccc(C(=O)NC3CC3)cc2)nn1 (racemic) [Example 125, rac-N-Cyclopropyl-4-{4-[(2-ethyl-imidazo[5,1-b]thiazol-3-yl)-hydroxy-methyl]-[1,2,3]triazol-1-yl}-benzamide] | 15 | 8710
10 | CCc1sc2cncn2c1C(O)c1cn(-c2ccc(C(=O)NCCCOC)cc2)nn1 (racemic) [Example 126, rac-4-{4-[(2-Ethyl-imidazo[5,1-b]thiazol-3-yl)-hydroxy-methyl]-[1,2,3]triazol-1-yl}-N-(3-methoxy-propyl)-benzamide] | 20.1 | > 10200
11 | CCc1sc2cncn2c1C(O)c1cn(-c2ccc(NC(=O)C(C)C)cc2)nn1 (racemic) [Example 127, rac-N-(4-{4-[(2-Ethyl-imidazo[5,1-b]thiazol-3-yl)-hydroxy-methyl]-[1,2,3]triazol-1-yl}-phenyl)-isobutyramide] | 8.21 | 7750
12 | CCNC(=O)c1ccc(-n2cc(C(O)c3c(CC)sc4cncn34)nn2)cc1 (racemic) [Example 128, rac-N-Ethyl-4-{4-[(2-ethyl-imidazo[5,1-b]thiazol-3-yl)-hydroxy-methyl]-[1,2,3]triazol-1-yl}-benzamide] | 16.5 | 9780
13 | C=CCNC(=O)c1ccc(-n2cc(C(O)c3c(CC)sc4cncn34)nn2)cc1 (racemic) [Example 129, rac-N-Allyl-4-{4-[(2-ethyl-imidazo[5,1-b]thiazol-3-yl)-hydroxy-methyl]-[1,2,3]triazol-1-yl}-benzamide] | 9.29 | 9780
14 | CCc1sc2cncn2c1C(O)c1cn(-c2ccc(C(=O)NCCC#N)cc2)nn1 (racemic) [Example 130, rac-N-(2-Cyano-ethyl)-4-{4-[(2-ethyl-imidazo[5,1-b]thiazol-3-yl)-hydroxy-methyl]-[1,2,3]triazol-1-yl}-benzamide] | 13.1 | > 10200
15 | CCc1sc2cncn2c1C(O)c1cn(-c2ccc(NC(N)=O)cc2)nn1 (racemic) [Example 131, rac-(4-{4-[(2-Ethyl-imidazo[5,1-b]thiazol-3-yl)-hydroxy-methyl]-[1,2,3]triazol-1-yl}-phenyl)-urea] | 22.3 | 2150
16 | COC(=O)Nc1ccc(-n2cc(C(O)c3c(C4CC4)sc4cncn34)cn2)cc1 (racemic) [Example 132, rac-(4-{4-[(2-Cyclopropyl-imidazo[5,1-b]thiazol-3-yl)-hydroxy-methyl]-pyrazol-1-yl}-phenyl)-carbamic Acid Methyl Ester] | 18.2 | 1770
17 | OC(c1cn(-c2ccccc2)nn1)c1c(C(F)(F)F)sc2cncn12 (racemic) [Example 133, rac-(1-Phenyl-1H-[1,2,3]triazol-4-yl)-(2-trifluoromethyl-imidazo[5,1-b]thiazol-3-yl)-methanol] | 24.2 | > 10200
18 | COc1ccc(-n2cc(C(O)c3c(C(F)(F)F)sc4cncn34)nn2)cc1 (racemic) [Example 134, rac-[1-(4-Methoxy-phenyl)-1H-[1,2,3]triazol-4-yl]-(2-trifluoromethyl-imidazo[5,1-b]thiazol-3-yl)-methanol] | 11.4 | > 10200
19 | COc1ccc(-n2cc(C(O)c3c(C4CC4)sc4cncn34)nn2)cc1C#N (racemic) [Example 135, rac-5-{4-[(2-Cyclopropyl-imidazo[5,1-b]thiazol-3-yl)-hydroxy-methyl]-[1,2,3]triazol-1-yl}-2-methoxy-benzonitrile] | 14 | > 10200
20 | OCCOc1ccc(-n2cc(C(O)c3c(C4CC4)sc4cncn34)nn2)cc1 (racemic) [Example 136, rac-2-(4-{4-[(2-Cyclopropyl-imidazo[5,1-b]thiazol-3-yl)-hydroxy-methyl]-[1,2,3]triazol-1-yl}-phenoxy)-ethanol] | 10.8 | > 10200
21 | OCCCOc1ccc(-n2cc(C(O)c3c(C4CC4)sc4cncn34)nn2)cc1 (racemic) [Example 137, rac-3-(4-{4-[(2-Cyclopropyl-imidazo[5,1-b]thiazol-3-yl)-hydroxy-methyl]-[1,2,3]triazol-1-yl}-phenoxy)-propan-1-ol] | 11.1 | > 10200
22 | OCCOCCOc1ccc(-n2cc(C(O)c3c(C4CC4)sc4cncn34)nn2)cc1 (racemic) [Example 138, rac-2-[2-(4-{4-[(2-Cyclopropyl-imidazo[5,1-b]thiazol-3-yl)-hydroxy-methyl]-[1,2,3]triazol-1-yl}-phenoxy)-ethoxy]-ethanol] | 16.5 | > 10200
23 | CC(C)(O)COc1ccc(-n2cc(C(O)c3c(C4CC4)sc4cncn34)nn2)cc1 (racemic) [Example 139, rac-1-(4-{4-[(2-Cyclopropyl-imidazo[5,1-b]thiazol-3-yl)-hydroxy-methyl]-[1,2,3]triazol-1-yl}-phenoxy)-2-methyl-propan-2-ol] | 14.6 | > 10200
24 | CC(C)(O)CCOc1ccc(-n2cc(C(O)c3c(C4CC4)sc4cncn34)nn2)cc1 (racemic) [Example 140, rac-4-(4-{4-[(2-Cyclopropyl-imidazo[5,1-b]thiazol-3-yl)-hydroxy-methyl]-[1,2,3]triazol-1-yl}-phenoxy)-2-methyl-butan-2-ol] | 8.46 | > 10200
25 | CC(C)(CO)COc1ccc(-n2cc(C(O)c3c(C4CC4)sc4cncn34)nn2)cc1 (racemic) [Example 141, rac-3-(4-{4-[(2-Cyclopropyl-imidazo[5,1-b]thiazol-3-yl)-hydroxy-methyl]-[1,2,3]triazol-1-yl}-phenoxy)-2,2-dimethyl-propan-1-ol] | 27.2 | > 10200
26 | OC(c1cn(-c2ccc(OCCC3(O)CC3)cc2)nn1)c1c(C2CC2)sc2cncn12 (racemic) [Example 142, rac-1-[2-(4-{4-[(2-Cyclopropyl-imidazo[5,1-b]thiazol-3-yl)-hydroxy-methyl]-[1,2,3]triazol-1-yl}-phenoxy)-ethyl]-cyclopropanol] | 13.3 | > 10200
27 | CC1(COc2ccc(-n3cc(C(O)c4c(C5CC5)sc5cncn45)nn3)cc2)COC1 (racemic) [Example 144, rac-(2-Cyclopropyl-imidazo[5,1-b]thiazol-3-yl)-{1-[4-(3-methyl-oxetan-3-ylmethoxy)-phenyl]-1H-[1,2,3]triazol-4-yl}-methanol] | 11.2 | > 10200
